In paper PMC11215771 (Journal of Medicinal Chemistry, 2024):

How the values were obtained:
[1] = molecular target: T1, hBACE1 fused to EGFP or mCherry in HEK293T cells (Homo sapiens, UniProt P56817); experiment: Staining of transfected HEK293T cells, confocal imaging: BACE1; format: cell-based; conditions: for staining of BACE1 after preincubation with unconjugated C3: living HEK293T, preincubation with 2 μM C3
T1 construct: expressed in transfected cells; host or cells: HEK293T
Experimental: (§1) Next, we explored the performance of the new Alexa-C3 compounds in living cells. Because of the rather hydrophilic properties, we exclusively targeted the cell membrane. To prevent intracellular accumulation, we first performed stainings at 4 °C arresting ATP-dependent endocytosis. […] All of the constructs were tagged at the C-terminus with either EGFP or mCherry to visualize subcellular expression. […] With these experiments, we want to exclude that a lack of staining is caused by an impaired accessibility of the protein by Alexa-C3 compounds. […] We then tested samples with BACE1 expression after fixation of the cells with paraformaldehyde (PFA).
(§2) (D) All conjugates were also probed on cells fixed with 4% paraformaldehyde (PFA) for 15 min prior to staining. […] Scale bars represent 5 μm (A–D) and 20 μm (E). […] Samples were excited at 488, 561, and 633 nm, respectively.
(§3) HEK293T cells (ATCC accession number CRL-11268) were maintained in Dulbecco's modified Eagle's medium (Sigma-Aldrich D6046) with 1g/L glucose, supplemented with 10% FCS (Merck) and 1% penicillin/streptomycin (PAA). CHO-K1 cells (ATCC #CCL-61) were maintained in modified phenol red free RPMI-1640 medium (Sigma-Aldrich, R7509), supplemented with 2 mM L-glutamine (Sigma-Aldrich, G7513), and 10% FCS (Merck). Cells were cultured at 37 °C in a 5% CO2 atmosphere. The following plasmids were used for transfection with the amount of DNA indicated (per 35 mm Petri dish): hBACE1 (NM_012104.4), 50 ng for single molecule recordings, 200 ng otherwise; hBACE1 fused to EGFP or mCherry, 75 ng; hBACE1 D289N fused to EGFP or mCherry, 75 ng; hBACE1 D289N, 200–400 ng; hBACE2 (NM_012105.3) fused to EGFP, 75 ng; hCathepsinD (HsCD00438327), Harvard PlasmID, 75 ng. Transfection was performed 24 h after plating using jetPEI (Polyplus) according to the manufacturer’s protocol.
For labeling, we plated HEK293T cells onto sterile 18 mm 1.5H borosilicate coverslips (VWR), coated with poly-D-lysine (Sigma). […] In addition, some cells were also fixed with 4% PFA or permeabilized with HBS + 50 μg/mL of Saponin for 15 min prior to staining as stated in the figure legend. After staining, live cells were washed with HBS twice. Confocal imaging was conducted at room temperature in HBS using the 63× objective and the pinhole set to 1 AU. Confocal imaging was performed 24 h after transfection.

[2] = Fluorescence spectroscopy, sensitivity to BSA and Expi293F cells; conditions: mock Expi293F cells in fluorobrite vs PBS alone
Experimental: Emission and excitation spectra of all compounds were determined at a concentration of 33 nM in phosphate buffered saline (PBS) using an infinite 200pro (Tecan) with a resolution of 2 nm. […] For sensitivity assessment, we used PBS, PBS + BSA (0.05%), and Expi293F cells in fluorobrite (2 × 10^6 cells/mL).

[3] = molecular target: recombinant human BACE1 protein (amino acids 1–457, extracellular domain) (Homo sapiens, UniProt P56817); experiment: Fluorescence correlation spectroscopy (FCS) with BACE1 ECD in solution
[4] = FCS of free Alexa-C3 in HBS in the absence of BACE1; conditions: 100 nM in HBS, pH 5, no BACE1, mean ± SD
[5] = molecular target: T2, hBACE1 D289N (proteolytic inactive mutant) in HEK293T cells (Homo sapiens, UniProt P56817, D289N); experiment: Staining of transfected HEK293T cells, confocal imaging: BACE1 D289N; format: cell-based
T2 construct: expressed in transfected cells; host or cells: HEK293T
Experimental: as §1, §2, §3
For labeling, we plated HEK293T cells onto sterile 18 mm 1.5H borosilicate coverslips (VWR), coated with poly-D-lysine (Sigma). […]

[6] = molecular target: T3, recombinant BACE1 extracellular domain (Homo sapiens, UniProt P56817); experiment: FRET-based BACE1 inhibition (BACE1-activity FRET) assay; format: biochemical
T3 construct: purchased Thermo Fisher Scientific P2985
Experimental: In addition, we performed a fluorescence resonance energy transfer (FRET)-based BACE1 inhibition assay using the recombinant BACE1 extracellular domain and a BACE1 substrate coupled to a donor fluorophore, which is unquenched […] to the activity of BACE1. […] (Figure 1F).
Protease activity was determined using a FRET-based assay with recombinant BACE1 protein (Thermo Fisher Scientific; P2985). BACE1 inhibition was determined in end-points assays according to the manufacturer’s protocol except using a reduced volume of 12 μL in 384-well plates (Greiner, 788896). […] Fluorescence intensities were quantified with an infinite 200pro reader (Tecan) using top-reading mode. Data points were approximated using a logistic fit to determine half-inhibitory concentrations (pIC50).

T3 sequence (P56817 46-457 limits assumed): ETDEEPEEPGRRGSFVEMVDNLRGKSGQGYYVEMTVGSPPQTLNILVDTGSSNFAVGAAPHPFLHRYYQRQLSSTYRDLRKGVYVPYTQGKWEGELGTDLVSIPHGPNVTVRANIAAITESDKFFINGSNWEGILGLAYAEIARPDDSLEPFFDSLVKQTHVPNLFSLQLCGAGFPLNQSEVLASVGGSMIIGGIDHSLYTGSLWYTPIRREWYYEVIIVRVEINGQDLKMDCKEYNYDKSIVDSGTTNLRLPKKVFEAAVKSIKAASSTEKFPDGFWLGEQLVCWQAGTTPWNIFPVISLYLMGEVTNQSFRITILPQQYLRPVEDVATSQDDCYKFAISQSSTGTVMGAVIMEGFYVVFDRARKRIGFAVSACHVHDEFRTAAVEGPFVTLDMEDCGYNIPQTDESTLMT
Sequence of recombinant human BACE1 protein (amino acids 1–457, extracellular domain) (P56817 22-457): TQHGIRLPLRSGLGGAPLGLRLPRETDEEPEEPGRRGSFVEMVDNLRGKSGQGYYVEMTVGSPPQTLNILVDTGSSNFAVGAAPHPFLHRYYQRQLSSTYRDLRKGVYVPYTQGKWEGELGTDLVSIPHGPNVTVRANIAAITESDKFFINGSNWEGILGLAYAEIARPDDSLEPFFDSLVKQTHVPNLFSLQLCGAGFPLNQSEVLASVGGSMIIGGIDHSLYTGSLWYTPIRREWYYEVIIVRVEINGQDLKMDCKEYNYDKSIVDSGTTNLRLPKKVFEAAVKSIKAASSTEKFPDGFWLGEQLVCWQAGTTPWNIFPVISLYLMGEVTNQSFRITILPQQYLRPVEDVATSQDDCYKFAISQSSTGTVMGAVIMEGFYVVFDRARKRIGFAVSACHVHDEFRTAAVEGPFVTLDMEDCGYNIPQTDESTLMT
T1 sequence (P56817 46-501): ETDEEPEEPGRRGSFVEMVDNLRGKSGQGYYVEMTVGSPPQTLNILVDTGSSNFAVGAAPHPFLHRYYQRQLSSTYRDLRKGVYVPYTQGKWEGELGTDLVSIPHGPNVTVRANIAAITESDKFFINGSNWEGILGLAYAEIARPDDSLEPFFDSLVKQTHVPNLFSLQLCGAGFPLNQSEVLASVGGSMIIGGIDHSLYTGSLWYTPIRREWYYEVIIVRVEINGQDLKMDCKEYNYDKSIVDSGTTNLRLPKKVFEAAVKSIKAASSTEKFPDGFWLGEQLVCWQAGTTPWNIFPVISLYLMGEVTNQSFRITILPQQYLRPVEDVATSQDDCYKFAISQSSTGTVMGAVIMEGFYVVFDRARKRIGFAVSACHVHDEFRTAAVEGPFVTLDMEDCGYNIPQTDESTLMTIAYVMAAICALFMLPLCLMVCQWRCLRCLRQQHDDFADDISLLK
T2 sequence (P56817 46-501 D289N): as the sequence (P56817 46-501) above, with D244N counted along it

Structure (SMILES)	staining of BACE1 after preincubation with unconjugated C3 [1]	increase of fluorescent output in presence of Expi293F cells [2]	EC50 [3]	diffusion time constant of the second (BACE1-bound, slow) population ([3]; 100 nM probe with BACE1 ECD, pH 5, mean ± SEM, n = 3 preparations)	diffusion time constant of free probe [4]	staining of BACE1 D289N [5]	increase of potency of the pIC50 in a cell-free assay vs parent C3 ([6]; compared with unconjugated C3)	IC50 ([6]; logistic fit, n = 3 for each compound, read-out: pIC50 (negative logarithm of the half-inhibitory concentration) (converted))	specificity in permeabilized cells ([1]; 50 μg/mL saponin prior to staining, 100 nM probe)	staining of BACE1 after fixation with PFA ([1]; HEK293T fixed with 4% PFA for 15 min prior to staining)	additional slow diffusing component with BACE1 ECD ([3]; 100 nM probe with BACE1 ECD, pH 5)	impairment of affinity to the catalytic center by dye attachment ([6]; compared with unconjugated C3)	pIC50 (negative logarithm of the half-inhibitory concentration) ([6]; logistic fit, n = 3 for each compound)
C[C@@H](NC(=O)c1cc(C(=O)N[C@@H](Cc2ccccc2)[C@H](O)CNC2CC2)cc(N(C)S(=O)(=O)CCCNC(=O)c2ccc(C(=O)O)c(-c3c4ccc(=N)c(S(=O)(=O)O)c-4oc4c(S(=O)(=O)O)c(N)ccc34)c2)c1)c1ccccc1 [2-(6-Amino-3-iminio-4,5-disulfo-3H-xanthen-9-yl)-4-((3-(N-(3-(((2S,3R)-4-(cyclopropylamino)-3-hydroxy-1-phenylbutan-2-yl)carbamoyl)-5-(((R)-1-phenylethyl)carbamoyl)phenyl)-N-methylsulfamoyl)propyl)carbamoyl)benzoate]	no appreciable fluorescence	+25%	9.77 nM	310 ± 10 μs	35 ± 3 μs	no appreciable fluorescence	10 fold	1.86 nM					
C[C@@H](NC(=O)c1cc(C(=O)N[C@@H](Cc2ccccc2)[C@H](O)CNC2CC2)cc(N(C)S(=O)(=O)CCCNC(=O)CCCCCC2(C)C(/C=C/C=C/C=C3/N(CCCS(=O)(=O)O)c4ccc(S(=O)(=O)O)cc4C3(C)C)=[N+](CCCS(=O)(=O)[O-])c3ccc(S(=O)(=O)O)cc32)c1)c1ccccc1 (some centres unmarked)	absence of any staining	+8%			53 ± 18 μs	not labeled			the same specificity was observed	did not yield a considerable signal	no additional slow component was observed	10 fold	6.53 (95% CI: 6.05–7.05)
